ChEMBL document CHEMBL5150044, “Macrocyclization of Quinazoline-Based EGFR Inhibitors Leads to Exclusive Mutant Selectivity for EGFR L858R and Del19” (J Med Chem, 2022)
Substitutions are numbered along the chain they refer to. In brackets after ≈: the same amount, converted by molar mass. Activity calls are given as the source filed them. No cut-off for these calls is given here.

Legend:
[1] = molecular target: Epidermal growth factor receptor (Homo sapiens, UniProt P00533, EX19DEL)
[2] = molecular target: Epidermal growth factor receptor (Homo sapiens, UniProt P00533)
[3] = molecular target: Epidermal growth factor receptor (Homo sapiens, UniProt P00533, L858R)
[4] = molecular target: Epidermal growth factor receptor (Homo sapiens, UniProt P00533, L858R/T790M)
[5] = molecular target: T1, Mitogen-activated protein kinase 1 and 3 (ERK2 and ERK1) (Mus musculus) (UniProt P63085+Q63844); experiment: Inhibition of ERK1/2 phosphorylation in mouse BaF3 cells harboring L858R mutant assessed as ERK1/2 phosphorylation at 10 to 1000 nM incubated for 8 hrs by Western blot analysis; format: cell-based; conditions: dose 10-1000 nM
[6] = tested on: Epidermal growth factor receptor (Homo sapiens), P04626+P00533+Q15303+P21860 [L858R]; conditions: Mus musculus; BaF3; dose 10-1000 nM, time 8.0 hrs
[7] = molecular target: T1, Mitogen-activated protein kinase 1 and 3 (ERK2 and ERK1) (Mus musculus); format: cell-based; conditions: BaF3, dose 10-1000 nM, time 8.0 hrs
[8] = molecular target: RAC-alpha serine/threonine-protein kinase (Mus musculus) (UniProt P31750); format: cell-based; conditions: BaF3, dose 10-1000 nM, time 8.0 hrs
[9] = molecular target: T1, Mitogen-activated protein kinase 1 and 3 (ERK2 and ERK1) (Mus musculus); experiment: Inhibition of ERK1/2 phosphorylation in mouse BaF3 cells harboring Del19 mutant assessed as ERK1/2 phosphorylation at 10 to 1000 nM incubated for 8 hrs by Western blot analysis; format: cell-based; conditions: dose 10-1000 nM
[10] = molecular target: RAC-alpha serine/threonine-protein kinase (Mus musculus) (UniProt P31750); format: cell-based; conditions: BaF3, dose 10-1000 nM, time 8.0 hrs; remark: listed apart in the source
[11] = molecular target: RAC-alpha serine/threonine-protein kinase (Mus musculus) (UniProt P31750); experiment: Inhibition of AKT phosphorylation in mouse BaF3 cells harboring Del19 mutant assessed as […] phosphorylation at 10 to 1000 nM incubated for 8 hrs by Western blot analysis; format: cell-based; conditions: dose 10-1000 nM
[12] = molecular target: RAC-alpha serine/threonine-protein kinase (Mus musculus) (UniProt P31750); experiment: Inhibition of AKT phosphorylation in mouse BaF3 cells harboring L858R mutant assessed as […] phosphorylation at 10 to 1000 nM incubated for 8 hrs by Western blot analysis; format: cell-based; conditions: dose 10-1000 nM
[13] = molecular target: T1, Mitogen-activated protein kinase 1 and 3 (ERK2 and ERK1) (Mus musculus); format: cell-based; conditions: BaF3, dose 10-1000 nM, time 8.0 hrs; remark: listed apart in the source
[14] = tested on: Receptor-type tyrosine-protein kinase FLT3 (Homo sapiens), P36888 [UNDEFINED MUTATION]; experiment: Inhibition of FLT3 ITD/D835V mutant (unknown origin) assessed as percent of control activity at 1 uM by radiometric protein kinase-reaction biology assay; values are per cent of control
[15] = tested on: BaF3; format: cell-based; conditions: Mus musculus, dose 10-1000 nM, time 8.0 hrs
[16] = Solubility in neutral aqueous solutions after 24 hrs by HPLC analysis; format: physicochemical
[17] = Solubility in 10% DMSO after 24 hrs by HPLC analysis; format: physicochemical
[18] = tested on: BaF3; format: cell-based; conditions: Mus musculus, dose 10-1000 nM, time 8.0 hrs; remark: listed apart in the source
[19] = tested on: T2, Receptor-type tyrosine-protein kinase FLT3 (Homo sapiens), P36888 [D835Y]; experiment: Inhibition of FLT3 D835Y mutant (unknown origin) assessed as percent of control activity at 1 uM by radiometric protein kinase-reaction biology assay; values are per cent of control
T2 sequence (whole entry): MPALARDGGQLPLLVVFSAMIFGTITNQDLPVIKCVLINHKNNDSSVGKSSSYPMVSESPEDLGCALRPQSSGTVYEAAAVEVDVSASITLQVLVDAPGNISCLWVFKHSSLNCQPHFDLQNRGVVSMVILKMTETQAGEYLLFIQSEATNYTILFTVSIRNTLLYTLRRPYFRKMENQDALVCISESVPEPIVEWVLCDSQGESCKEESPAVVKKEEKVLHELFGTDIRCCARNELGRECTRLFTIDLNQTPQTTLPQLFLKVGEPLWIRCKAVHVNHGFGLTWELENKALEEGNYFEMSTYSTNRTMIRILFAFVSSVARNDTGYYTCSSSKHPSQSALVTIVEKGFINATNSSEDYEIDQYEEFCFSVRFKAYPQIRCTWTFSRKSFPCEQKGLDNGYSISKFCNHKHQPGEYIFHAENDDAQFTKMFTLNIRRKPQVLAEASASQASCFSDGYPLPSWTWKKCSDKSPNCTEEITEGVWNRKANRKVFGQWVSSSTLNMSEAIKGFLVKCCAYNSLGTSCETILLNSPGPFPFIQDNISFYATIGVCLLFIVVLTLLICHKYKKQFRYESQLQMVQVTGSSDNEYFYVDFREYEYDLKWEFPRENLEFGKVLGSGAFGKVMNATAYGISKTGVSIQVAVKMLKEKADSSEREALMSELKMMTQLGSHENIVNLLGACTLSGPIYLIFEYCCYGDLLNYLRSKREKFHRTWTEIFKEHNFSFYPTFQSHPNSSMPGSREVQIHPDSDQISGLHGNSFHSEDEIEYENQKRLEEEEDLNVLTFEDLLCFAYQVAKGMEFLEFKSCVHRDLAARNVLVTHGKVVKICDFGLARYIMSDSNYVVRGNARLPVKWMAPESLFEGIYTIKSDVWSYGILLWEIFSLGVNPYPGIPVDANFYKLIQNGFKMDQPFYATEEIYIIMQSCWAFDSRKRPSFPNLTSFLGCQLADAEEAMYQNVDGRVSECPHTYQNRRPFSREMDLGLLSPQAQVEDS

[20] = tested on: T3, Receptor-type tyrosine-protein kinase FLT3 (Homo sapiens), P36888 [D835V]; experiment: Inhibition of FLT3 D835V mutant (unknown origin) assessed as percent of control activity at 1 uM by radiometric protein kinase-reaction biology assay; values are per cent of control
T3 sequence (whole entry): T2 sequence (whole entry) with Y835V

[21] = Solubility in 100% DMSO after 24 hrs by HPLC analysis; format: physicochemical
[22] = tested on: BaF3; experiment: Inhibition of EGFR Del19 mutant in mouse BaF3 cells assessed as protein phosphorylation at 10 to 1000 nM incubated for 8 hrs by Western blot analysis; format: cell-based; conditions: dose 10-1000 nM
[23] = organism: Homo sapiens; experiment: Inhibition of EGFR […] mutant (unknown origin) assessed as percent of control activity at 1 uM by radiometric protein kinase-reaction biology assay; values are per cent of control
[24] = tested on: BaF3; experiment: cells; format: functional, cell-based; conditions: Mus musculus, BaF3, 72 h
[25] = tested on: BaF3; experiment: cells; conditions: Mus musculus, BaF3, 72 h
[26] = tested on: BaF3; experiment: cells; format: functional, cell-based; conditions: Mus musculus, BaF3, 72 h; remark: listed apart in the source
[27] = tested on: BaF3; experiment: cells; conditions: Mus musculus, BaF3, 72 h; remark: listed apart in the source
[28] = tested on: BaF3; experiment: cells; conditions: Mus musculus, BaF3, 72 h; remark: listed apart in the source
[29] = tested on: BaF3; experiment: cells; conditions: Mus musculus, BaF3, 72 h; remark: listed apart in the source
[30] = tested on: BaF3; experiment: cells; conditions: Mus musculus, BaF3, 72 h; remark: listed apart in the source
[31] = tested on: BaF3; experiment: cells; conditions: Mus musculus, BaF3, 72 h; remark: listed apart in the source
[32] = tested on: BaF3; experiment: cells; conditions: Mus musculus, BaF3, 72 h; remark: listed apart in the source
[33] = tested on: BaF3; experiment: cells; format: functional, cell-based; conditions: Mus musculus, BaF3, 72 h; remark: listed apart in the source
[34] = tested on: BaF3; experiment: cells; format: functional, cell-based; conditions: Mus musculus, BaF3, 72 h; remark: listed apart in the source
[35] = tested on: BaF3; experiment: cells; conditions: Mus musculus, BaF3, 72 h; remark: listed apart in the source

Sequence of RAC-alpha serine/threonine-protein kinase (Mus musculus) (P31750 whole entry): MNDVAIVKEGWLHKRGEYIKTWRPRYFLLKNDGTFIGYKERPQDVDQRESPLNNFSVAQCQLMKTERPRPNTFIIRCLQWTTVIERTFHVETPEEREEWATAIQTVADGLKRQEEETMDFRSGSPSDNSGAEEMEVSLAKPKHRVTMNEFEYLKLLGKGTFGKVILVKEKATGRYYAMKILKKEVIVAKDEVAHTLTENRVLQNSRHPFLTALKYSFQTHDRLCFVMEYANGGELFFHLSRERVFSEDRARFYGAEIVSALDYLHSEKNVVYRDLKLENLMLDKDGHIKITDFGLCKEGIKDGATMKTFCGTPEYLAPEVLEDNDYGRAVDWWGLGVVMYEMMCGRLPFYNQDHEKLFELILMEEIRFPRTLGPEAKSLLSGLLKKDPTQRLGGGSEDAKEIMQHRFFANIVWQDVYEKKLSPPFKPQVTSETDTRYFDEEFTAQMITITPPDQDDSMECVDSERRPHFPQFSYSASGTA
Sequence of Epidermal growth factor receptor (Homo sapiens, UniProt P00533, L858R) (P00533 25-1210 L858R limits assumed): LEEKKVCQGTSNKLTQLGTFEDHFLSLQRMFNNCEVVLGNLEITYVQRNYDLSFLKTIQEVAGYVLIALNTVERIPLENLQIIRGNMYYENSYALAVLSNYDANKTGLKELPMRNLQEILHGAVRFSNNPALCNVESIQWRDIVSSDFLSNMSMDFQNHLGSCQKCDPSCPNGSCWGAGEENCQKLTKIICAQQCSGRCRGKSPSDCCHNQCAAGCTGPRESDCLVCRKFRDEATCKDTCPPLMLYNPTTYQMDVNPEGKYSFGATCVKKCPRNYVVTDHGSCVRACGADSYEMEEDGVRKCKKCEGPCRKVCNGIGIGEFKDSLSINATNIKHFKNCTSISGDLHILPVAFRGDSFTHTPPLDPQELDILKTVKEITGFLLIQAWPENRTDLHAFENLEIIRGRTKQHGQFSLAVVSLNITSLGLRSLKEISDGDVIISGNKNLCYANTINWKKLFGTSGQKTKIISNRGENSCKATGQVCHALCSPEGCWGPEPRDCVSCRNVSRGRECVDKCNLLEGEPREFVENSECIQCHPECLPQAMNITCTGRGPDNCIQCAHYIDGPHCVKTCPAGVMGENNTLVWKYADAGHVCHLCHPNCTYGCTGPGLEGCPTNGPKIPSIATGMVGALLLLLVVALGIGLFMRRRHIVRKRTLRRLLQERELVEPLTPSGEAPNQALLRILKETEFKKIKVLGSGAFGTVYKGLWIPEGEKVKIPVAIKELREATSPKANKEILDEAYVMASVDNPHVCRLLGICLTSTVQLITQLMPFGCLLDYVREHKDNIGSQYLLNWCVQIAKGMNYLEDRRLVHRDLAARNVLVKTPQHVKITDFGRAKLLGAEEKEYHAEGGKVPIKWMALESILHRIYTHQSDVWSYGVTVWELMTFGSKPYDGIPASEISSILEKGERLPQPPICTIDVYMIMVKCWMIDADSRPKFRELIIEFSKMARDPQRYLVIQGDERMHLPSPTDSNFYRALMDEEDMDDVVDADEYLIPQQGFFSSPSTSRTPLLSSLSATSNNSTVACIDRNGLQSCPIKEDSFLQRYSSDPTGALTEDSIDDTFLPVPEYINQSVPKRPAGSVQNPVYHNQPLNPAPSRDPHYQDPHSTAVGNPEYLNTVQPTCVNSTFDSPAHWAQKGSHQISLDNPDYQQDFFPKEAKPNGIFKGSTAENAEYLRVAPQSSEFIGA
Sequence of Epidermal growth factor receptor (Homo sapiens, UniProt P00533) (P00533 whole entry): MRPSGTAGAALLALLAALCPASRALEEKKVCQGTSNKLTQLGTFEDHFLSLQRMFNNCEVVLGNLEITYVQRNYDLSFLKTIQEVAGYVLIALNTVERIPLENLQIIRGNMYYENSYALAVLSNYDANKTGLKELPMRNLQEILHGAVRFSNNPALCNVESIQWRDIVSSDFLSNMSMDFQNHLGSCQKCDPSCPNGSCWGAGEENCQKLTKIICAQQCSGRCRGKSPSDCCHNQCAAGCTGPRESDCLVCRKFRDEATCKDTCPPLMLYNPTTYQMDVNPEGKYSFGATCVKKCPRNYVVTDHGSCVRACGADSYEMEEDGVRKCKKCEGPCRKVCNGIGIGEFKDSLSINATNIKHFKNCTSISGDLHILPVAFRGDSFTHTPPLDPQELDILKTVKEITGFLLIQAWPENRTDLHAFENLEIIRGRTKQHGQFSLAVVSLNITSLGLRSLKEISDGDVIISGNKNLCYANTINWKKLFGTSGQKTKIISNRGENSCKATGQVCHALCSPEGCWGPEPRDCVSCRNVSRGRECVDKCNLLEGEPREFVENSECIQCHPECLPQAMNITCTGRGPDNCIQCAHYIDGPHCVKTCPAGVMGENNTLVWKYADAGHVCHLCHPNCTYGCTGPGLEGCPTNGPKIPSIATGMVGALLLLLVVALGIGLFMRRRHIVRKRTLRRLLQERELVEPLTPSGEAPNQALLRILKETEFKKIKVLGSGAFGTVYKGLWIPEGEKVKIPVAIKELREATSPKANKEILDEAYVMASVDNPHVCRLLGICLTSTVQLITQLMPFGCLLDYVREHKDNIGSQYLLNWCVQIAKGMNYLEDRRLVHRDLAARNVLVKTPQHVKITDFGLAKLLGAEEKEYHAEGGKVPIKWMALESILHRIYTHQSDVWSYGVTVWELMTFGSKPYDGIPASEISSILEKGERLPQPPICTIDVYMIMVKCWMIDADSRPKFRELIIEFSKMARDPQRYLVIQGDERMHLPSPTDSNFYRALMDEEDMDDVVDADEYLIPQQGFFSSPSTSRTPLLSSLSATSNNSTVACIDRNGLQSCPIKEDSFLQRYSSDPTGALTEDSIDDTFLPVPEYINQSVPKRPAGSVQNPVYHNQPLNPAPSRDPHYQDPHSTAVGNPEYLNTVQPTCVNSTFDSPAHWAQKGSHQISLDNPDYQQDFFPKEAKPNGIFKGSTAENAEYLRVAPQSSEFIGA
Sequence of Epidermal growth factor receptor (Homo sapiens, UniProt P00533, EX19DEL) (P00533 whole entry, looked up, stated change not applied): as the sequence (P00533 whole entry) above
T1 sequence (P63085 whole entry, looked up): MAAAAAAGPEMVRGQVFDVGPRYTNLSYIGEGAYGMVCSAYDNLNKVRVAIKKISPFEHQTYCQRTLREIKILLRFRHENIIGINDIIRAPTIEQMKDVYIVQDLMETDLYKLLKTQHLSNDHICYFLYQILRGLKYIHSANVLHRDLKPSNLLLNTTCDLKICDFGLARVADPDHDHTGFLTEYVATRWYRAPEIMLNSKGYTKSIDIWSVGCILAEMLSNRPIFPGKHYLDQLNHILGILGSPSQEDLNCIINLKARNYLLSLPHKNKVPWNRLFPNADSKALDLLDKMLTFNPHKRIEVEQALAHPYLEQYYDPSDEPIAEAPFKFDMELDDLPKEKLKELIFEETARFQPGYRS
T1 sequence (Q63844 whole entry, looked up): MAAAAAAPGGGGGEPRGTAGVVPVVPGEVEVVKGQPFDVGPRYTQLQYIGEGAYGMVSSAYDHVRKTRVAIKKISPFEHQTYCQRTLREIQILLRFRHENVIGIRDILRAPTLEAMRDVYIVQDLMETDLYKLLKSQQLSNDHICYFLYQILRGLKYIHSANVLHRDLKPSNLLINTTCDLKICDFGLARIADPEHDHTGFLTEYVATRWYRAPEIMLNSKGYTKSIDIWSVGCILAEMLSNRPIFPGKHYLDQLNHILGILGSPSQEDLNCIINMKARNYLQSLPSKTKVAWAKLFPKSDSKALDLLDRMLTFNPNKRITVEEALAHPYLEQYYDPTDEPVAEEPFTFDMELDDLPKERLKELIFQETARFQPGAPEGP

SMILES	IC50 [1] [µM]	IC50 [2] [µM]	IC50 [3] [µM]	further results
COc1cc2ncnc3c2cc1OCCOCCOc1cc(Cl)cc(c1)N3	6.3			
COc1cc2ncnc3c2cc1OCCOCCOCCOc1ccc(Cl)cc1N3	0.0003	> 100	0.0007	inhibition [5]: Active; inhibition [6]: Active; inhibition [7]: Active; inhibition [8]: Active; inhibition [9]: Active; inhibition [10]: Active; inhibition [11]: Active; inhibition [12]: Active; inhibition [13]: Active
COc1cc2ncnc3c2cc1OCCOCCOc1cc(F)c(Cl)cc1N3				residual activity [14]: 33%; inhibition [15]: Active; solubility at 24 h [16]: 0.131 µg/mL (≈ 0.323 µM); solubility at 24 h [17]: 0.283 µg/mL (≈ 0.697 µM); inhibition [18]: Active; residual activity [19]: 25%; residual activity [20]: 5%; solubility [21]: 2592 µg/mL (≈ 6390 µM); inhibition [22]: Active; residual activity [23]: 26%
COc1cc2ncnc3c2cc1OCCOCCOc1ccc(Cl)c(c1)N3	70.4	> 100	19.9	
COc1cc2ncnc3c2cc1OCCOCCOCCOc1ccccc1N3	1.87	> 100	0.0876	
COc1cc2ncnc3c2cc1OCCCCCCOc1ccc(Cl)cc1N3	0.0196	> 100	0.739	
COc1cc2ncnc3c2cc1OCCOCCOCCOc1cc(F)c(Cl)cc1N3	0.0013	> 100	0.0028	inhibition [5]: Active; inhibition [6]: Active; inhibition [7]: Active; inhibition [8]: Active; inhibition [9]: Active; inhibition [10]: Active; inhibition [11]: Active; inhibition [12]: Active; inhibition [13]: Active
Fc1cc2c(cc1Cl)Nc1ncnc3ccc(cc13)OCCOCCO2	1.03			IC50 [24]: 2.76 µM; IC50 [25]: 5.36 µM; IC50 [26]: 3.1 µM
COc1cc2ncnc3c2cc1OCCCCCCOc1ccccc1N3	0.491			
C=CC(=O)Nc1cc(Nc2ncc(C(=O)OC(C)C)c(-c3cn(C)c4ccccc34)n2)c(OC)cc1N(C)CCN(C)C [MOBOCERTINIB]				IC50 [24]: 1.06 µM; IC50 [27]: 0.0089 µM; IC50 [28]: 3.81 µM; IC50 [29]: 2.17 µM; IC50 [30]: 0.0476 µM; IC50 [31]: 0.0271 µM; IC50 [32]: 1.13 µM; IC50 [33]: 0.009 µM; IC50 [34]: 0.0101 µM; IC50 [25]: 0.0019 µM; IC50 [26]: 0.005 µM; IC50 [35]: 0.0083 µM
COc1cc2ncnc3c2cc1OCCOCCOc1cc(ccc1Cl)N3	0.493		1.12	

Continued, in another order:

IC50 [1] [µM]	IC50 [2] [µM]	IC50 [3] [µM]	SMILES	further results
0.0429	> 100	0.0326	COc1cc2ncnc3c2cc1OCCOCCOCCOc1cccc(Cl)c1N3	
63.5	> 100	> 100	COc1cc2ncnc3c2cc1OCCCCCCOc1cc(Cl)ccc1N3	
0.235	> 100	0.655	COc1cc2ncnc3c2cc1OCCCCCCOc1cc(F)c(Cl)cc1N3	
0.155	> 100	0.685	COc1cc2ncnc3c2cc1OCCOCCOc1ccccc1N3	IC50 [4]: 1.68 µM
0.0568	> 100	0.275	COc1cc2ncnc3c2cc1OCCCCCCOc1cccc(Cl)c1N3	
0.0249	> 100	0.128	COc1cc2ncnc3c2cc1OCCOCCOc1ccc(Cl)cc1N3	
0.0162	> 100	0.0383	COc1cc2ncnc3c2cc1OCCOCCOCCOc1cc(Cl)ccc1N3	
0.509			COc1cc2ncnc3c2cc1OCCOCCOc1c(Cl)cccc1N3	
	> 100		COc1cc2ncnc3c2cc1OCCOCCOc1cc(Cl)ccc1N3	
33.9			COc1cc2ncnc3c2cc1OCCOCCOc1cccc(c1)N3	
3.03		> 100	COc1cc2ncnc3c2cc1OCCCCCCOc1c(Cl)cccc1N3	
